Data from patent US8445492B2, “Method for inhibiting growth of cancer cells and cell telomere and diseases of cell proliferation by using heteroannelated anthraquinone derivative compounds” (National Defense Medical Center, priority 2008, dated 2013).
Read-outs that look alike come from different tables or passages of the source.

Key:
CCRF-CEM [1] = assay: NCI DTP in-vitro dose response, Leukemia
RPMI-8226 [2] = tested on: RPMI-8226
K-562 [3] = assay: NCI DTP in-vitro dose response, Leukemia
MOLT-4 [4] = assay: NCI DTP in-vitro dose response, Leukemia
K-562 [5] = tested on: K-562
CCRF-CEM [6] = tested on: CCRF-CEM
MOLT-4 [7] = tested on: MOLT-4
HL-60(TB) [8] = assay: NCI DTP in-vitro dose response, Leukemia
HL-60(TB) [9] = tested on: HL-60(TB)
RPMI-8226 [10] = assay: NCI DTP in-vitro dose response, Leukemia
NCI-H522 [11] = tested on: NCI-H522
NCI-H23 [12] = tested on: NCI-H23
NCI-H226 [13] = tested on: NCI-H226
A549/ATCC [14] = tested on: A549/ATCC
NCI-H460 [15] = tested on: NCI-H460
HOP-62 [16] = tested on: HOP-62
EKVX [17] = tested on: EKVX
NCI-H460 [18] = tested on: NCI-H460; remark: listed apart in the source
NCI-H226 [19] = tested on: NCI-H226; remark: listed apart in the source
NCI-H522 [20] = tested on: NCI-H522; remark: listed apart in the source
NCI-H23 [21] = tested on: NCI-H23; remark: listed apart in the source
HOP-92 [22] = tested on: HOP-92
EKVX [23] = tested on: EKVX; remark: listed apart in the source
HOP-62 [24] = tested on: HOP-62; remark: listed apart in the source
HOP-92 [25] = tested on: HOP-92; remark: listed apart in the source
A549/ATCC [26] = tested on: A549/ATCC; remark: listed apart in the source

## O=C1c2ccccc2C(=O)c2c1ccc1nccnc21 [TABLE 5-1]
CCRF-CEM [1]
  CC50: > 100 µM
RPMI-8226 [2]
  GI50: 1.61 µM
  TGI: >1.00E−4
RPMI-8226 [2]; Log10 Concentration −4.0
  Percent Growth: 12%
RPMI-8226 [2]; Log10 Concentration −5.0
  Percent Growth: 30%
RPMI-8226 [2]; Log10 Concentration −6.0
  Percent Growth: 55%
RPMI-8226 [2]; Log10 Concentration −7.0
  Percent Growth: 81%
RPMI-8226 [2]; Log10 Concentration −8.0
  Percent Growth: 90%
K-562 [3]
  CC50: > 100 µM
MOLT-4 [4]
  CC50: > 100 µM
K-562 [5]
  GI50: 0.0683 µM
  TGI: >1.00E−4
K-562 [5]; Log10 Concentration −4.0
  Percent Growth: 10%
K-562 [5]; Log10 Concentration −5.0
  Percent Growth: 17%
K-562 [5]; Log10 Concentration −6.0
  Percent Growth: 30%
K-562 [5]; Log10 Concentration −7.0
  Percent Growth: 41%
K-562 [5]; Log10 Concentration −8.0
  Percent Growth: 94%
CCRF-CEM [6]
  GI50: 2.46 µM
  TGI: >1.00E−4
CCRF-CEM [6]; Log10 Concentration −4.0
  Percent Growth: 20%
CCRF-CEM [6]; Log10 Concentration −5.0
  Percent Growth: 22%
CCRF-CEM [6]; Log10 Concentration −6.0
  Percent Growth: 68%
CCRF-CEM [6]; Log10 Concentration −7.0
  Percent Growth: 91%
CCRF-CEM [6]; Log10 Concentration −8.0
  Percent Growth: 90%
MOLT-4 [7]
  GI50: 3.65 µM
  TGI: >1.00E−4
MOLT-4 [7]; Log10 Concentration −4.0
  Percent Growth: 4%
MOLT-4 [7]; Log10 Concentration −5.0
  Percent Growth: 33%
MOLT-4 [7]; Log10 Concentration −6.0
  Percent Growth: 72%
MOLT-4 [7]; Log10 Concentration −7.0
  Percent Growth: 81%
MOLT-4 [7]; Log10 Concentration −8.0
  Percent Growth: 89%
HL-60(TB) [8]
  CC50: 83.7 µM
HL-60(TB) [9]
  GI50: 0.677 µM
  TGI: 1.15E−5
HL-60(TB) [9]; Log10 Concentration −4.0
  Percent Growth: −54%
HL-60(TB) [9]; Log10 Concentration −5.0
  Percent Growth: 3%
HL-60(TB) [9]; Log10 Concentration −6.0
  Percent Growth: 47%
HL-60(TB) [9]; Log10 Concentration −7.0
  Percent Growth: 67%
HL-60(TB) [9]; Log10 Concentration −8.0
  Percent Growth: 83%
RPMI-8226 [10]
  CC50: > 100 µM

## O=C1c2ccccc2C(=O)c2c1ccc1nccnc21 [TABLE 5-2]
NCI-H522 [11]
  CC50: > 100 µM
NCI-H23 [12]
  CC50: > 100 µM
NCI-H226 [13]
  CC50: > 100 µM
A549/ATCC [14]
  CC50: > 100 µM
NCI-H460 [15]
  CC50: > 100 µM
HOP-62 [16]
  GI50: 5.64 µM
  TGI: >1.00E−4
HOP-62 [16]; Log10 Concentration −4.0
  Percent Growth: 3%
HOP-62 [16]; Log10 Concentration −5.0
  Percent Growth: 40%
HOP-62 [16]; Log10 Concentration −6.0
  Percent Growth: 81%
HOP-62 [16]; Log10 Concentration −7.0
  Percent Growth: 82%
HOP-62 [16]; Log10 Concentration −8.0
  Percent Growth: 92%
EKVX [17]
  GI50: 3.45 µM
  TGI: 7.21E−5
EKVX [17]; Log10 Concentration −4.0
  Percent Growth: −4%
EKVX [17]; Log10 Concentration −5.0
  Percent Growth: 25%
EKVX [17]; Log10 Concentration −6.0
  Percent Growth: 79%
EKVX [17]; Log10 Concentration −7.0
  Percent Growth: 89%
EKVX [17]; Log10 Concentration −8.0
  Percent Growth: 101%
NCI-H460 [18]
  GI50: 2.01 µM
  TGI: 2.69E−5
NCI-H460 [18]; Log10 Concentration −4.0
  Percent Growth: −22%
NCI-H460 [18]; Log10 Concentration −5.0
  Percent Growth: 17%
NCI-H460 [18]; Log10 Concentration −6.0
  Percent Growth: 65%
NCI-H460 [18]; Log10 Concentration −7.0
  Percent Growth: 95%
NCI-H460 [18]; Log10 Concentration −8.0
  Percent Growth: 98%
NCI-H226 [19]
  GI50: 16.6 µM
  TGI: 9.52E−5
NCI-H226 [19]; Log10 Concentration −4.0
  Percent Growth: −1%
NCI-H226 [19]; Log10 Concentration −5.0
  Percent Growth: 64%
NCI-H226 [19]; Log10 Concentration −6.0
  Percent Growth: 73%
NCI-H226 [19]; Log10 Concentration −7.0
  Percent Growth: 81%
NCI-H226 [19]; Log10 Concentration −8.0
  Percent Growth: 86%
NCI-H522 [20]
  GI50: 4.64 µM
  TGI: 3.25E−5
NCI-H522 [20]; Log10 Concentration −4.0
  Percent Growth: −33%
NCI-H522 [20]; Log10 Concentration −5.0
  Percent Growth: 35%
NCI-H522 [20]; Log10 Concentration −6.0
  Percent Growth: 81%
NCI-H522 [20]; Log10 Concentration −7.0
  Percent Growth: 86%
NCI-H522 [20]; Log10 Concentration −8.0
  Percent Growth: 89%
NCI-H23 [21]
  GI50: 12 µM
  TGI: 7.03E−5
NCI-H23 [21]; Log10 Concentration −4.0
  Percent Growth: −10%
NCI-H23 [21]; Log10 Concentration −5.0
  Percent Growth: 55%
NCI-H23 [21]; Log10 Concentration −6.0
  Percent Growth: 84%
NCI-H23 [21]; Log10 Concentration −7.0
  Percent Growth: 87%
NCI-H23 [21]; Log10 Concentration −8.0
  Percent Growth: 92%
HOP-92 [22]
  GI50: 22.5 µM
  TGI: >1.00E−4
HOP-92 [22]; Log10 Concentration −4.0
  Percent Growth: 8%
HOP-92 [22]; Log10 Concentration −5.0
  Percent Growth: 73%
HOP-92 [22]; Log10 Concentration −6.0
  Percent Growth: 78%
HOP-92 [22]; Log10 Concentration −7.0
  Percent Growth: 83%
HOP-92 [22]; Log10 Concentration −8.0
  Percent Growth: 95%
EKVX [23]
  CC50: > 100 µM
HOP-62 [24]
  CC50: > 100 µM
HOP-92 [25]
  CC50: > 100 µM
A549/ATCC [26]
  GI50: 4.53 µM
  TGI: >1.00E−4
A549/ATCC [26]; Log10 Concentration −4.0
  Percent Growth: 3%
A549/ATCC [26]; Log10 Concentration −5.0
  Percent Growth: 36%
A549/ATCC [26]; Log10 Concentration −6.0
  Percent Growth: 77%
A549/ATCC [26]; Log10 Concentration −7.0
  Percent Growth: 95%
A549/ATCC [26]; Log10 Concentration −8.0
  Percent Growth: 93%
